The text below walks through data of patent US20140045189A1 (priority 2009, published 2014).

For assay [1], the system named is Listeria monocytogenes. Conditions: 30 min, TSA-Y, control 2.78×10^9 CFU/ml. The protocol:
(§1) Listeria monocytogenes EGDe (1/2a, internal number 2964) is used as a model organism for Gram-positive bacteria and as a DNA quantification standard for real-time PCR. Salmonella enterica serovar Typhimurium (NCTC 12023) is used as a model organism for Gram-negative bacteria and as a DNA quantification standard for real-time PCR. The bacteria are maintained at −80° C. using MicroBank™ technology (Pro-Lab Diagnostics, Richmont Hill, Canada) and are part of the collection of bacterial strains at the Institute of Milk Hygiene, Milk Technology and Food Science, University of Veterinary Medicine, Vienna, Austria. All bacterial strains are grown overnight in tryptone soya broth with 0.6% (w/v) yeast extract (TSB-Y; Oxoid, Hampshire, United Kingdom) at the respective optimal growth temperatures (37° C., L. monocytogenes and 42° C., S. Typhimurium).
(§2) The influence of different MgCl2 concentrations on the viability of Listeria monocytogenes and Salmonella Typhimurium is investigated. The target organisms are incubated for 30 min with 3 different concentrations of MgCl2 (1 M, 2 M and 3 M) and at 3 different temperatures (35° C., 38° C. and 45° C.) and the CFUs on TSA-Y agar plates after the treatment are compared with the control sample.

In assay [2] the test system is Salmonella Typhimurium. The following applies: 30 min, TSA-Y, control […]10^9 CFU/ml. The protocol: as §1, §2

Read-outs that look alike come from different tables or passages of the source.

In the case of `[Cl-].[Cl-].[Mg+2]` [MgCl2, magnesium chloride], the “CFU/ml of L. monocytogenes after treatment” value is given as 3.86×10^9 CFU/ml in assay [1] (1 M MgCl2, 35° C.); 4.06×10^9 CFU/ml in assay [1] (1 M MgCl2, 38° C.); 4.39×10^9 CFU/ml in assay [1] (1 M MgCl2, 45° C.); 3.10×10^9 CFU/ml in assay [1] (2 M MgCl2, 35° C.); 3.64×10^9 CFU/ml in assay [1] (2 M MgCl2, 38° C.); 1.68×10^9 CFU/ml in assay [1] (2 M MgCl2, 45° C.). Moreover, the “CFU/ml of L. monocytogenes after treatment” value in assay [1] (3 M MgCl2, 35° C.) was 1.76×10^9 CFU/ml; in assay [1] (3 M MgCl2, 38° C.), 8.5×10^8 CFU/ml; in assay [1] (3 M MgCl2, 45° C.) it was 1.5×10^8 CFU/ml. Besides, the “CFU/ml of S. Typhimurium after treatment” value is on record as 1.15×10^9 CFU/ml in assay [2] (1 M MgCl2, 35° C.); 8.33×10^8 CFU/ml in assay [2] (1 M MgCl2, 38° C.); 4.1×10^8 CFU/ml in assay [2] (1 M MgCl2, 45° C.); 2.3×10^8 CFU/ml in assay [2] (2 M MgCl2, 35° C.); 1.35×10^8 CFU/ml in assay [2] (2 M MgCl2, 38° C.); 5.75×10^7 CFU/ml in assay [2] (3 M MgCl2, 35° C.). Also, the “CFU/ml of S. Typhimurium after treatment” value in assay [2] (3 M MgCl2, 38° C.) is reported as 2.0×10^7 CFU/ml.
